Measured values as given in US6799123B2, “Dissolution test equipment and method” (priority 2001, dated 2004).
Like-named read-outs stand apart in the source and are kept apart here.

Experiments:
[1] = Single cell dissolution test (comparative); assay type: physicochemical; conditions: flow rate optimized to match in vivo data
Procedure: Equipment was set up as follows: A continuous, stirred, filtration cell, such as the Amicon stirred ultrafiltration cell model 8050, available from Millipore Corporation, was equipped with a peristaltic pump to feed fluid into the cell at a rate in the range 3-10 ml/min. The filtrate from the cell was passed into a 1 cm path length flow-through quartz uv cell. The uv cell is situated in a suitable uv spectrophotometer, such as the Genesys 2, UV Spectrophotemer available from Spectronic Instruments. The filtration cell was fitted with a 3 micron filter to retain undissolved particles. 60 ml of simulated intestinal fluid pH 7.4 was added to the filtration cell, and then simulated intestinal fluid was fed into it via the pump at a flow rate of 6.5 ml/min. This was continued until the absorbance at 276 nm as measured in the uv cell was constant. 50 mg of diclofenac sodium was then added to the filtration cell. The uv absorbance at 276 nm of the effluent from the cell was recorded through the duration of the test. The concentration was calculated using a suitably determined calibration curve. In Table 1 the data from this experiment is compared with in vivo data reported in U.S. Pat. No. 4,510,128. The flow rate for this example was optimized such that the uv absorbance returned to baseline within approximately the same time (8 hours) as the in vivo data.

[2] = cited from earlier work
[3] = in vivo blood plasma concentration profile from literature; cited from earlier work

Row | Compound | time for uv absorbance of effluent to return to baseline [1] | solubility ([2]; low pH of the stomach) | solubility ([2]; near neutral conditions of the upper GI) | t10 for in vivo data (time after Cmax to fall to 10% of Cmax) [3] | tmax for in vivo data [3]
1 | O=C(O)Cc1ccccc1Nc1c(Cl)cccc1Cl [diclofenac sodium] | ~8 h | essentially insoluble | soluble |  | 
2 | CN[C@@H](C)[C@@H](O)c1ccccc1 [pseudoephedrine] |  |  |  | 1380 min | 1.5 h
3 | CC(=O)Nc1ccc(O)cc1 [paracetamol] |  |  |  | 510 min | 0.55 h
4 | CC(C)Cc1ccc(C(C)C(=O)O)cc1 (stereo not drawn) [ibuprofen] |  |  |  | 410 min | 1.17 h
